PMC10905588 (ACS Omega, 2024)
Like-named read-outs stand apart in the source and are kept apart here. Marks after values point to notes of the source that are not given here.

Assays:
[1] = tested on: STZ-induced diabetic rat model; details: during the course of 0–300 min; cited from earlier work
[2] = target: T1, α-glucosidase (Saccharomyces cerevisiae, UniProt P53341); details: read-out: IC50 α-glucosidase; cited from earlier work
[3] = target: T2, α-amylase (Homo sapiens, UniProt P04746); details: read-out: IC50 α-amylase; cited from earlier work
T2 sequence (P04746 16-511): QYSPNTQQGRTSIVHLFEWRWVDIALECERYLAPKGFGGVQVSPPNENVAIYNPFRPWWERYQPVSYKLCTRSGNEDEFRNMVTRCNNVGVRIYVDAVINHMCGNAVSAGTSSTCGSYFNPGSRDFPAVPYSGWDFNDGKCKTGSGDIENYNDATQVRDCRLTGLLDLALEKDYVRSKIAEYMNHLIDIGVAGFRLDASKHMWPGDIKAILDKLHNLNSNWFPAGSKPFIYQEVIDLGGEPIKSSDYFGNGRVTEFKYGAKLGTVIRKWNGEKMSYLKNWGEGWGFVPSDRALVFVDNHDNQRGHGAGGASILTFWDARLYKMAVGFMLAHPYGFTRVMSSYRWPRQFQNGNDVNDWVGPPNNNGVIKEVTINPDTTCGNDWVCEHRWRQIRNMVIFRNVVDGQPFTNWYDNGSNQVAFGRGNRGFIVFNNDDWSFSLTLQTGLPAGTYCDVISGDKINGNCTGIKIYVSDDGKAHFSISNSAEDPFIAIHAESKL

[4] = tested on: streptozotocin (STZ)-induced diabetic rat model; test: blood glucose level in STZ-induced diabetic rats; details: WA1-WA3 12 mg/kg oral, glibenclamide 0.5 mg/kg; mean ± SEM, n = 8
[5] = tested on: streptozotocin (STZ)-induced diabetic rat model; test: kidney and liver function tests in STZ-induced diabetic rats; type: in vivo, Wistar rats; details: serum, 28th day; 12 mg/kg oral (glibenclamide 0.5 mg/kg); mean ± SEM, n = 8
[6] = body weight of STZ-induced diabetic rats; details: WA1-WA3 12 mg/kg; mean ± SEM, n = 8
[7] = tested on: streptozotocin (STZ)-induced diabetic rat model; test: glycated hemoglobin; details: for HbA1c (%): Table 4: dose printed 6 mg/kg for WA1-WA3, 0.5 mg/kg glibenclamide, n = 8; for HbA1c level: text: WA1, WA2, WA3 at 12 mg/kg, diabetic control 10.12%
[8] = tested on: streptozotocin (STZ)-induced diabetic rat model; test: serum lipid profile in STZ-induced diabetic rats; type: in vivo, Wistar rats; details: 28th day, 12 mg/kg oral (glibenclamide 0.5 mg/kg), mean ± SEM, n = 8
[9] = acute toxicity study; type: in vivo
[10] = target: T1, α-glucosidase; test: in-vitro α-glucosidase inhibitory activity; type: biochemical
[11] = target: T2, α-amylase; test: in-vitro α-amylase inhibitory activity; type: biochemical

T1 sequence (P53341 whole entry): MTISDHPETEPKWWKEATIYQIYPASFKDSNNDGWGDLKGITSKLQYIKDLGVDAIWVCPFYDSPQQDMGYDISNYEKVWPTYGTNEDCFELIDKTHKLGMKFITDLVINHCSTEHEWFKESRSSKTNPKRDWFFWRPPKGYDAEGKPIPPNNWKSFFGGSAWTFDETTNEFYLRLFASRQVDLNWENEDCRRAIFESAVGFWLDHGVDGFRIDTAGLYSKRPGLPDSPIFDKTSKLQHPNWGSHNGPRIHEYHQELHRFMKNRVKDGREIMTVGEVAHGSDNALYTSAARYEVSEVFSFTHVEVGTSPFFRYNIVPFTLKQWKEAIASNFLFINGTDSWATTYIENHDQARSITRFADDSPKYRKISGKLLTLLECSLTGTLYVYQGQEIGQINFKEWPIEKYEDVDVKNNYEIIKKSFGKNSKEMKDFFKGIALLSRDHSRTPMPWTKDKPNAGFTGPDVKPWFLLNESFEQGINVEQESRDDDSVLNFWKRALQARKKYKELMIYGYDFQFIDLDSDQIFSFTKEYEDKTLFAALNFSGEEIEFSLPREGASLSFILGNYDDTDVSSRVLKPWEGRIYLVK

Structure (SMILES)	lowering of blood glucose levels [1]	blood glucose level, day 1st [4]	blood glucose level, day 7th [4]	blood glucose level, day 14th [4]	blood glucose level, day 21st [4]	blood glucose level, day 28th [4]	kidney: creatinine [5]	kidney: urea [5]	liver: ALP [5]	liver: ALT [5]	liver: AST [5]	body weight, 1st day [6]	body weight, 7th day [6]	body weight, 14th day [6]	body weight, 21st day [6]	body weight, 28th day [6]	HbA1c (%) [7]	HbA1c level [7]	HDL [8]	LDL [8]	other results
COc1cc2[nH]c3c4c(c(C)cc3c2cc1OC)OC(C)(C)C=C4 [koenidine]	~22.5%	–	–	–	–	–	–	–	–	–	–	–	–	–	–	–	–	–	–	–	–
COc1ccc2c(c1)[nH]c1c3c(c(C)cc12)OC(C)(C)C=C3 [O-methylmurrayamine A]	roughly 24.6%	–	–	–	–	–	–	–	–	–	–	–	–	–	–	–	–	–	–	–	–
CC(C)=CCCC1(C)C=Cc2c(c(C)cc3c2[nH]c2ccccc23)O1 (stereo not drawn) [mahanimbine]	–	–	–	–	–	–	–	–	–	–	–	–	–	–	–	–	–	–	–	–	IC50 [2]: 299 µM; IC50 [3]: 250 µM
COc1ccc(Cl)cc1C(=O)NCCc1ccc(S(=O)(=O)NC(=O)NC2CCCCC2)cc1 [glibenclamide, reference compound]	–	458.12 ± 6.15 mg/dL	349.36 ± 4.98 mg/dL	248.70 ± 6.96 mg/dL	138.49 ± 4.86 mg/dL	102.19 ± 5.11 mg/dL	1.01 ± 0.07 mg/dL	40.17 ± 1.90 mg/dL	133.67 ± 3.71 U/L	71.43 ± 2.13 U/L	55.03 ± 1.94 U/L	184.11 ± 5.15	183.91 ± 4.87	189.16 ± 5.13	187.63 ± 4.86	194.37 ± 4.90	6.91*** %	6.91%	39.64 ± 1.51 mg/dL	40.17 ± 1.80 mg/dL	TC (total cholesterol) [8]: 84.31 ± 4.95 mg/dL; TG (triglycerides) [8]: 102.97 ± 3.69 mg/dL
CN(C)C(=N)N=C(N)N [metformin, reference compound]	25.9%	–	–	–	–	–	–	–	–	–	–	–	–	–	–	–	–	–	–	–	–
COc1ccc2cc3[n+](cc2c1OC)CCc1cc2c(cc1-3)OCO2 [WA1, berberine]	–	460.11 ± 5.17 mg/dL	376.70 ± 4.98 mg/dL	268.21 ± 5.79 mg/dL	176.33 ± 4.69 mg/dL	133.01 ± 5.18 mg/dL	1.07 ± 0.06 mg/dL	47.30 ± 1.51 mg/dL	145.69 ± 3.78 U/L	88.30 ± 2.45 U/L	71.16 ± 1.79 U/L	183.77 ± 5.01	180.33 ± 4.91	178.16 ± 4.96	174.80 ± 4.77	170.88 ± 4.84	7.55*** %	7.55%	35.11 ± 1.66 mg/dL	56.33 ± 2.79 mg/dL	nontoxic up to (acute toxicity profile) ([9]; oral doses 5-500 mg/kg b.w., observed up to 14 days): up to 500 mg/kg; behavior in acute toxicity profile ([9]; up to 500 mg/kg (b.w.)): normal behavior; IC50 [10]: 569 µM; IC50 [11]: 200 µM; TC (total cholesterol) [8]: 92.67 ± 4.81 mg/dL; TG (triglycerides) [8]: 112.17 ± 3.10 mg/dL
